From patent publication US10689377B2 (Mirati Therapeutics, Inc., priority 2017, dated 2020) come the findings set out here.

One may read the IC50 as the midpoint of a concentration-inhibition curve.

Read-outs that look alike come from different tables or passages of the source.

The target of assay [1] is KRas G12C (Homo sapiens, UniProt P01116, C118S/C51S/C80L/G12C). Briefly: KRas G12C Modification Assay (LCMS detection of covalent adduct). It counts as binding. The method, boiled down: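 Intact protein analysed by LC/MS with deconvolution; unmodified protein signal normalized to no-compound control and reported as percent of control (POC).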
For assay [2], the target named is KRas G12C (Homo sapiens, UniProt P01116, G12C). The experiment in a line: Cellular inhibition of KRas G12C measured by Phospho-ERK in NCI-H358 cells. It counts as cell-based. The following applies: pERK(Thr202/Tyr204) normalized with GAPDH, NCI-H358 cells, 3 hours. The method, boiled down: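 Following 8-12 h attachment, NCI-H358 cells got serially diluted compound (0.5% DMSO) for 3 hours. Cells were then fixed, permeabilized with cold methanol, and stained for pERK(Thr202/Tyr204) and GAPDH. Ratios were converted to percent of DMSO control, with IC50 obtained by four-parameter regression.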

Where [3] appears, read: normalized percent of control, 5 μM concentration for 3 hours.

With `C=CC(=O)N1CCN(c2nc(OC[C@@H]3CCCN3C)nc3c2CCN(c2cc(O)cc4ccccc24)C3)CC1CC#N` (stereo partly drawn) [Example 182, 2-[4-[7-(3-hydroxy-1-naphthyl)-2-[[(2S)-1-methylpyrrolidin-2-yl]methoxy]-6,8-dihydro-5H-pyrido[3,4-d]pyrimidin-4-yl]-1-prop-2-enoyl-piperazin-2-yl]acetonitrile], the POC result in assay [1] (setting [3]) is “C (“C”>50% POC)”. Further, the IC50 in assay [2] (read-out: IC50) lay within 0.1 to 1000 nM.
Take `[2H]C([2H])=C([2H])C(=O)N1CCN(c2nc(OC[C@@H]3CCCN3C)nc3c2CCN(c2cccc4ccccc24)C3)C[C@@H]1CC#N` [Example 475, 2-[(2S)-4-[2-[[(2S)-1-methylpyrrolidin-2-yl]methoxy]-7-(1-naphthyl)-6,8-dihydro-5H-pyrido[3,4-d]pyrimidin-4-yl]-1-(2,3,3-trideuterioprop-2-enoyl)piperazin-2-yl]acetonitrile]: in assay [1] (setting [3]), the POC entry is given as “C (“C”>50% POC)”. Also, the IC50 in assay [2] (read-out: IC50) was in the range of 0.1 to 1000 nM.
As for `C=CC(=O)N1CCN(c2nc(OC[C@@H]3CCCN3C)nc3c2CCN(c2c(C(C)C)ccc4[nH]ncc24)C3)CC1` [Example 248, (S)-1-(4-(7-(5-isopropyl-1H-indazol-4-yl)-2-((1-methylpyrrolidin-2-yl)methoxy)-5,6,7,8-tetrahydropyrido[3,4-d]pyrimidin-4-yl)piperazin-1-yl)prop-2-en-1-one], in assay [1] (5 µM), the POC entry is listed as “C (key: “A”≤25% POC; “B”>25% POC-≤50% POC; “C”>50% POC)”. The IC50 in assay [2] (read-out: IC50) is above 1000 nM.
As to `CN1C[C@H](F)C[C@H]1COc1nc2c(c(N3CCN(C(=O)/C=C/CF)[C@@H](CC#N)C3)n1)CCN(c1cccc3cccc(Cl)c13)C2` [Example 582, 2-((S)-4-(7-(8-Chloronaphthalen-1-yl)-2-(((2S,4R)-4-fluoro-1-methylpyrrolidin-2-yl)methoxy)-5,6,7,8-tetrahydropyrido[3,4-d]pyrimidin-4-yl)-1-((E)-4-fluorobut-2-enoyl)piperazin-2-yl)acetonitrile], the POC entry in assay [1] (setting [3]) is listed as “C (“C”>50% POC)”. Further, in assay [2] (read-out: IC50), the IC50 lay within 0.1 to 1000 nM.
On to `C=CC(=O)N1CCN(c2nc(OCCCN3CCOCC3)nc3c2CCN(c2cc(O)cc4sc(C)nc24)C3)CC1` [Example 166, 1-[4-[7-(6-hydroxy-2-methyl-1,3-benzothiazol-4-yl)-2-(3-morpholinopropoxy)-6,8-dihydro-5H-pyrido[3,4-d]pyrimidin-4-yl]piperazin-1-yl]prop-2-en-1-one], for which the POC result in assay [1] (5 µM) is “B (key: “A”≤25% POC; “B”>25% POC-≤50% POC; “C”>50% POC)”. The IC50 in assay [2] (read-out: IC50) is above 1000 nM.
`C=CC(=O)N1CCN(c2nc(OC[C@]3(C)CCCN3C)nc3c2CCN(c2cccc4ccccc24)C3)CC1CC#N` (stereo partly drawn) [Example 251, 2-(1-acryloyl-4-(2-(((S)-1,2-dimethylpyrrolidin-2-yl)methoxy)-7-(naphthalen-1-yl)-5,6,7,8-tetrahydropyrido[3,4-d]pyrimidin-4-yl)piperazin-2-yl)acetonitrile]: in assay [1] (setting [3]), the POC entry was “C (“C”>50% POC)”. The molecule further had an IC50 in assay [2] of 0.1 to 1000 nM.
`C=CC(=O)N1CCN(c2nc(OC[C@@H]3CCCN3C)nc3c2CCN(c2cccc4c2OCC4)C3)C[C@@H]1CC#N` [Example 435, 2-((S)-1-acryloyl-4-(7-(2,3-dihydrobenzofuran-7-yl)-2-(((S)-1-methylpyrrolidin-2-yl)methoxy)-5,6,7,8-tetrahydropyrido[3,4-d]pyrimidin-4-yl)piperazin-2-yl)acetonitrile]: in assay [1] (setting [3]), the POC result is given as “C (“C”>50% POC)”. In assay [2] (read-out: IC50), the IC50 lay within 0.1 to 1000 nM.
Take `C=C(F)C(=O)N1CCN(c2nc(OC[C@@H]3CCCN3C)nc3c2CCN(c2cccc4cccc(C5CC5)c24)C3)C[C@@H]1CC#N` [Example 590, 2-((S)-4-(7-(8-Cyclopropylnaphthalen-1-yl)-2-(((S)-1-methylpyrrolidin-2-yl)methoxy)-5,6,7,8-tetrahydropyrido[3,4-d]pyrimidin-4-yl)-1-(2-fluoroacryloyl)piperazin-2-yl)acetonitrile]: in assay [1] (setting [3]), the POC entry is recorded as “B (“B”>25% POC-≤50% POC)”. The IC50 in assay [2] (read-out: IC50) was above 1000 nM.
